Test results as given in ChEMBL document CHEMBL5154932, “Discovery of 1,6-Naphthyridin-2(1H)-one Derivatives as Novel, Potent, and Selective FGFR4 Inhibitors for the Treatment of Hepatocellular Carcinoma” (J Med Chem, 2022).

Key:
[1] = rat, in vivo, iv, 1 mg/kg
in vivo [2] = conditions: Sprague-Dawley, rat, po, 10 mg/kg
in vivo [3] = conditions: Sprague-Dawley, rat, po, 10 mg/kg; remark: listed apart in the source
[4] = rat, in vivo, iv, 1 mg/kg; remark: listed apart in the source
in vitro [5] = conditions: mouse, liver microsomes
in vitro [6] = conditions: rat, plasma
[7] = rat, in vivo, iv, 1 mg/kg; remark: listed apart in the source
[8] = rat, in vivo, iv, 1 mg/kg; remark: listed apart in the source
[9] = rat, in vivo, iv, 1 mg/kg; remark: listed apart in the source
in vitro [10] = conditions: beagle, dog, plasma
in vitro [11] = conditions: human, plasma
in vitro [12] = conditions: cynomolgus monkey, liver microsomes
in vitro [13] = conditions: mouse, plasma
[14] = rat, in vivo, iv, 1 mg/kg; remark: listed apart in the source
in vitro [15] = conditions: rat, liver microsomes
in vitro [16] = conditions: cynomolgus monkey, plasma
in vivo [17] = conditions: Sprague-Dawley, rat, po, 10 mg/kg; remark: listed apart in the source
in vitro [18] = conditions: beagle, dog, liver microsomes
in vivo [19] = conditions: Sprague-Dawley, rat, po, 10 mg/kg; remark: listed apart in the source
in vivo [20] = conditions: Sprague-Dawley, rat, po, 10 mg/kg; remark: listed apart in the source
in vitro [21] = conditions: human, liver microsomes
in vivo [22] = conditions: Sprague-Dawley, rat, po, 10 mg/kg; remark: listed apart in the source
[23] = rat, in vivo, po, 10 mg/kg
[24] = rat, in vivo, po, 10 mg/kg; remark: listed apart in the source
[25] = rat, in vivo, po, 10 mg/kg; remark: listed apart in the source
[26] = rat, in vivo, po, 10 mg/kg; remark: listed apart in the source

SMILES | Vd [1] [L/kg] | MRT last (in vivo [2]) [h] | t1/2 [4] [min] | half-life (in vitro [5]) [h] | half-life (in vitro [6]) [h] | CL [7] [mL/min/kg] | Cmax [8] [ng/mL] | MRT(t) [9] [h] | half-life (in vitro [10]) [h] | half-life (in vitro [11]) [h] | half-life (in vitro [13]) [h] | AUCt [14] [ng·h/mL] | half-life (in vitro [16]) [h] | half-life (in vitro [21]) [h] | bioavailability (in vivo [22]) [%] | further results
CC#CC(=O)Nc1cc(-c2cc3c(cn2)cc(-c2c(Cl)c(OC)cc(OC)c2Cl)c(=O)n3CC)c(OC)cc1N1C[C@H]2C[C@@H]1CO2 | 1.1 | 2.4 | 2 | 0.735 | > 4.82 | 6.7 | 1836.2 | 1.8 | > 4.82 | 4.77 | 3.33 | 2609.6 | > 4.82 | 0.668 | 55.4 | Tmax (in vivo [3]): 1.4 h; half-life (in vitro [12]): 0.222 h; half-life (in vitro [15]): 1.22 h; Cmax (in vivo [17]): 3650 ng/mL; half-life (in vitro [18]): 0.455 h; AUC(0-t) (in vivo [19]): 14400 ng·h/mL; half-life (in vivo [20]): 2 min
C=CC(=O)N[C@H]1CCOC[C@H]1Nc1ncc2cc(-c3c(Cl)c(OC)cc(OC)c3Cl)ccc2n1 [FISOGATINIB] | 1.4 | 1.8 | 1 | 0.333 | > 4.82 | 17 | 1161 | 1 | > 4.82 | > 4.82 | > 4.82 | 1023.1 | > 4.82 | 0.42 | 79.7 | Tmax [23]: 0.5 h; Cmax [24]: 2570.9 ng/mL; AUCt [25]: 8155.2 ng·h/mL; t1/2 [26]: 1.2 min
